Assay results reported in paper PMC4412765 (Chemical biology & drug design, 2014).
Where two headings read alike, the source gives them in different places.

Tests used:
[1] = target: Rv3378c (Mycobacterium tuberculosis, UniProt P9WJ61)
[2] = test system: UPPS; settings: cited from earlier work
[3] = test system: M. smegmatis; experiment: Activity against the M. tuberculosis model M. smegmatis; format: cell-based
[4] = target: cis-DPPS (Rv2361c) (Mycobacterium tuberculosis, UniProt P9WFF7)
[5] = test system: S. aureus; settings: cited from earlier work

cis-DPPS (Rv2361c), sequence (P9WFF7 whole entry): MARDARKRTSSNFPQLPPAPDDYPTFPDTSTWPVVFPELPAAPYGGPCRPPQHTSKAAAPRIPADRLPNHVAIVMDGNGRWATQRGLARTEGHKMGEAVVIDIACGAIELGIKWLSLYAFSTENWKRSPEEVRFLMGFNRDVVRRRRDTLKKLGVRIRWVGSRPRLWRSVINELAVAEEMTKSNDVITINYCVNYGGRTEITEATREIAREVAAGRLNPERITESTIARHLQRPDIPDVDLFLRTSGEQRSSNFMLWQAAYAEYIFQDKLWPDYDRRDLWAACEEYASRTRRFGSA
Rv3378c, sequence (P9WJ61 whole entry): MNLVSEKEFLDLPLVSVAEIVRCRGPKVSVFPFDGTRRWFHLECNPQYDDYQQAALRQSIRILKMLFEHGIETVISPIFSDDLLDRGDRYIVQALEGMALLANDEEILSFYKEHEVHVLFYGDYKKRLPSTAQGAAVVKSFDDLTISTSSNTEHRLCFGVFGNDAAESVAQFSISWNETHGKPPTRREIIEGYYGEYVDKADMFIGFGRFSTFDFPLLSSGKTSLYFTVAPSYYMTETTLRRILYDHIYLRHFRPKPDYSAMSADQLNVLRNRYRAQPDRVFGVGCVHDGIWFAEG

Cl.Cl.O=C(Nc1cccc(C2=NCCN2)c1)c1ccc(-c2ccc(C(=O)Nc3cccc(C4=NCCN4)c3)cc2)cc1 [BPH-1358]
activity against Rv3378c [1]: inactive
UPPS inhibition [2]: potent UPPS inhibitor

O=P(O)(O)C(O)(Cc1cccc(-c2cccc3c2oc2ccccc23)c1)P(=O)(O)O [BPH-629]
activity against M. smegmatis [3]: inactive
IC50 ([4]; read-out: IC50 against DPPS, cis-FPP as substrate): 610 nM

C(=C\c1cc2ccc(C3=NCCN3)cc2[nH]1)/c1cc2ccc(C3=NCCN3)cc2[nH]1 [BPH-1417]
IC50 ([4]; read-out: IC50 against DPPS, depending on substrate): 500 to 20000 nM
IC50 ([4]; read-out: IC50 against cis-DPPS, substrate not stated): 1300 nM
in vivo activity against S. aureus [5]: potent
